Assay results reported in US12471596B2 (priority 2019, dated 2025).

Key:
Phytophthora infestans [1] = assay: microbe, parasite or virus in culture; type: cell-based; conditions: in Secale cereale, 168 h, read-out: control compared to the untreated check
Phytophthora infestans [2] = assay: whole plant or invertebrate; type: in vivo, Phytophthora infestans on tomato plants; conditions: in Solanum lycopersicum, 24 h, read-out: control compared to the untreated check

In the case of COc1nccnc1OCC(=O)N1CCC(c2nc(C3=NOC(c4c(F)cccc4Cl)C3)cs2)CC1 (centres unmarked) [Compound 25, 1-(4-(4-(5-(2-chloro-6-fluorophenyl)-4,5-dihydroisoxazol-3-yl)thiazol-2-yl)piperidin-1-yl)-2-((3-methoxypyrazin-2-yl)oxy)ethan-1-one], the inhibition of growth at 30 ppm (Phytophthora infestans [1]) is reported as ≥ 70% and the pest or weed control at 50 ppm (Phytophthora infestans [2]) is reported as ≥ 70%.
COc1nccnc1OCC(=O)N1CCC(c2nc(C3=NOC(c4c(Cl)cccc4C#N)C3)cs2)CC1 (centres unmarked) [Compound 26, 3-chloro-2-(3-(2-(1-(2-((3-methoxypyrazin-2-yl)oxy)acetyl)piperidin-4-yl)thiazol-4-yl)-4,5-dihydroisoxazol-5-yl)benzonitrile] was tested, and the inhibition of growth at 30 ppm (Phytophthora infestans [1]) was ≥ 70% and the pest or weed control at 50 ppm (Phytophthora infestans [2]) was ≥ 70%.
For COc1nccnc1OCC(=O)N1CCC(c2nc(C3=NOC(c4c(F)cccc4F)C3)cs2)CC1 (centres unmarked) [Compound 27, 1-(4-(4-(5-(2,6-difluorophenyl)-4,5-dihydroisoxazol-3-yl)thiazol-2-yl)piperidin-1-yl)-2-((3-methoxypyrazin-2-yl)oxy)ethan-1-one], the inhibition of growth at 30 ppm (Phytophthora infestans [1]) was ≥ 70% and the pest or weed control at 50 ppm (Phytophthora infestans [2]) was ≥ 70%.
For COc1nccnc1OCC(=O)N1CCC(c2nc(C3=NOC(c4c(F)cccc4Br)C3)cs2)CC1 (centres unmarked) [Compound 28, 1-(4-(4-(5-(2-bromo-6-fluorophenyl)-4,5-dihydroisoxazol-3-yl)thiazol-2-yl)piperidin-1-yl)-2-((3-methoxypyrazin-2-yl)oxy)ethan-1-one], the inhibition of growth at 30 ppm (Phytophthora infestans [1]) was ≥ 70% and the pest or weed control at 50 ppm (Phytophthora infestans [2]) was ≥ 70%.
For COc1nccnc1OCC(=O)N1CCC(c2nc(C3=NOC(c4c(Cl)cccc4OS(C)(=O)=O)C3)cs2)CC1 (centres unmarked) [Compound 29, 3-chloro-2-(3-(2-(1-(2-((3-methoxypyrazin-2-yl)oxy)acetyl)piperidin-4-yl)thiazol-4-yl)-4,5-dihydroisoxazol-5-yl)phenyl methanesulfonate], the inhibition of growth at 30 ppm (Phytophthora infestans [1]) was ≥ 70% and the pest or weed control at 50 ppm (Phytophthora infestans [2]) was ≥ 70%.
In the case of COc1ccnc(OCC(=O)N2CCC(c3nc(C4=NOC(c5c(Cl)cccc5C#N)C4)cs3)CC2)n1 (centres unmarked) [Compound 31, 3-chloro-2-(3-(2-(1-(2-((4-methoxypyrimidin-2-yl)oxy)acetyl)piperidin-4-yl)thiazol-4-yl)-4,5-dihydroisoxazol-5-yl)benzonitrile], the inhibition of growth at 30 ppm (Phytophthora infestans [1]) is reported as ≥ 70% and the pest or weed control at 50 ppm (Phytophthora infestans [2]) is reported as ≥ 70%.
With COc1ccnc(OCC(=O)N2CCC(c3nc(C4=NOC(c5c(Cl)cccc5OS(C)(=O)=O)C4)cs3)CC2)n1 (centres unmarked) [Compound 32, 3-chloro-2-(3-(2-(1-(2-((4-methoxypyrimidin-2-yl)oxy)acetyl)piperidin-4-yl)thiazol-4-yl)-4,5-dihydroisoxazol-5-yl)phenyl methanesulfonate] the inhibition of growth at 30 ppm (Phytophthora infestans [1]) was ≥ 70% and the pest or weed control at 50 ppm (Phytophthora infestans [2]) was ≥ 70%.
COc1ccnc(OCC(=O)N2CCC(c3nc(C4=NOC(c5c(Cl)cccc5Cl)C4)cs3)CC2)n1 (centres unmarked) [Compound 33, 1-(4-(4-(5-(2,6-dichlorophenyl)-4,5-dihydroisoxazol-3-yl)thiazol-2-yl)piperidin-1-yl)-2-((4-methoxypyrimidin-2-yl)oxy)ethan-1-one] was tested, and the inhibition of growth at 30 ppm (Phytophthora infestans [1]) was ≥ 70% and the pest or weed control at 50 ppm (Phytophthora infestans [2]) was ≥ 70%.
For COc1ccnc(OCC(=O)N2CCC(c3nc(C4=NOC(c5c(F)cccc5Cl)C4)cs3)CC2)n1 (centres unmarked) [Compound 34, 1-(4-(4-(5-(2-chloro-6-fluorophenyl)-4,5-dihydroisoxazol-3-yl)thiazol-2-yl)piperidin-1-yl)-2-((4-methoxypyrimidin-2-yl)oxy)ethan-1-one], the inhibition of growth at 30 ppm (Phytophthora infestans [1]) was ≥ 70% and the pest or weed control at 50 ppm (Phytophthora infestans [2]) was ≥ 70%.
With COc1ccnc(OCC(=O)N2CCC(c3nc(C4=NOC(c5c(F)cccc5F)C4)cs3)CC2)n1 (centres unmarked) [Compound 36, 1-(4-(4-(5-(2,6-difluorophenyl)-4,5-dihydroisoxazol-3-yl)thiazol-2-yl)piperidin-1-yl)-2-((4-methoxypyrimidin-2-yl)oxy)ethan-1-one] the inhibition of growth at 30 ppm (Phytophthora infestans [1]) was ≥ 70% and the pest or weed control at 50 ppm (Phytophthora infestans [2]) was ≥ 70%.
